Measured values: patent US11161856B2 (H. Lundbeck A/S, priority 2017, dated 2021)

Key:
MAGL [1] = molecular target: T1, MAGL (Mus musculus, UniProt O35678); test: Mouse brain proteomes from inhibitor treated mice (oral gavage, brain proteome ABPP 4 h after administration); assay type: in vivo; conditions: mouse brain proteome 4 h after administration
T1 construct: from tissue; host or cells: brain of wild-type C57Bl/6J mice dosed by oral gavage
T1 sequence (O35678 1-303): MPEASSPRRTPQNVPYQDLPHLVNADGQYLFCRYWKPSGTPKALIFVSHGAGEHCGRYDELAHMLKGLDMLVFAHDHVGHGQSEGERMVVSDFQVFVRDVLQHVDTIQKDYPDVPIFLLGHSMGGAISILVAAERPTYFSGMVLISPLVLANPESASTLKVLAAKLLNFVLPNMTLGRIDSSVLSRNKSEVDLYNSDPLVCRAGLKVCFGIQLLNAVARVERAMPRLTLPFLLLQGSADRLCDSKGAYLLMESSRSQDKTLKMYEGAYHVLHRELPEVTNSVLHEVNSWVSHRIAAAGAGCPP
Protocol: Preparation of Mouse Brain Proteomes from Inhibitor Treated Mice.
Inhibitors were administered to wild-type C57B1/6J by oral gavage in a vehicle of polyethylene glycol. Each animal was sacrificed 4 h following administration and brain proteomes were prepared and analyzed according to previously established methods (See Niphakis, M. J., et al. (2011) ACS Chem. Neurosci. and Long, J. Z., et al. Nat. Chem. Biol. 5:37-44).

MGLL = molecular target: T2, MGLL (Mus musculus, UniProt O35678); test: In vitro competitive activity-based protein profiling, mouse brain proteome (MGLL); assay type: biochemical; parameters: IC50 MGLL Brain (Mouse, μM): scale not given here; conditions: for % Inh MGLL Brain (Mouse, μM): concentration not given (μM)
T2 construct: Brain; from tissue; host or cells: mouse brain proteome
T2 sequence (O35678 1-303): T1 sequence (O35678 1-303)

ABHD6 = molecular target: T3, ABHD6 (Mus musculus, UniProt Q8R2Y0); test: In vitro competitive activity-based protein profiling, mouse brain proteome (ABHD6); assay type: biochemical; conditions: for % Inh ABHD6 Brain (Mouse, μM): mouse brain proteome, concentration not given (μM)
T3 construct: Brain; from tissue; host or cells: mouse brain proteome
T3 sequence (Q8R2Y0 1-336): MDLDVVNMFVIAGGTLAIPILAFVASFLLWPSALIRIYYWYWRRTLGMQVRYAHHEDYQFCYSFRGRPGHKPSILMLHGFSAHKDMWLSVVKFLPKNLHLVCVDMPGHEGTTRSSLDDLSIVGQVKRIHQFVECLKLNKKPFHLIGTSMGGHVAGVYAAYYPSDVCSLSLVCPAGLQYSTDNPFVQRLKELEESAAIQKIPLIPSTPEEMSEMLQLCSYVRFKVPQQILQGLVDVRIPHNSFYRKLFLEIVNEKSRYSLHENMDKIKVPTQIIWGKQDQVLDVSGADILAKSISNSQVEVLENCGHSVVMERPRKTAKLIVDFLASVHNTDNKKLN
Protocol: [The source words this procedure for another target and reports this target under the same test.] In Vitro Competitive Activity-Based Protein Profiling.
Proteomes (human prefrontal cortex or cell membrane fractions) (50 μL, 1.0 mg/mL total protein concentration) were preincubated with varying concentrations of inhibitors at 37° C. After 30 min, FP-Rh or HT-01 (1.0 μL, 50 μM in DMSO) was added and the mixture was incubated for another 30 min at room temperature. Reactions were quenched with SDS loading buffer (15 μL-4×) and run on SDS-PAGE.

MAGL [2] = molecular target: T4, MAGL (Homo sapiens, UniProt Q99685); test: In vitro competitive activity-based protein profiling (FP-Rh or HT-01 probe, gel-based); assay type: biochemical; parameters: IC50 MGLL PC3 (Human, μM) / IC50 MGLL PFC (Human, μM): scale not given here
T4 construct: Proteomes (human prefrontal cortex or cell membrane fractions); from tissue
T4 sequence (Q99685 1-303): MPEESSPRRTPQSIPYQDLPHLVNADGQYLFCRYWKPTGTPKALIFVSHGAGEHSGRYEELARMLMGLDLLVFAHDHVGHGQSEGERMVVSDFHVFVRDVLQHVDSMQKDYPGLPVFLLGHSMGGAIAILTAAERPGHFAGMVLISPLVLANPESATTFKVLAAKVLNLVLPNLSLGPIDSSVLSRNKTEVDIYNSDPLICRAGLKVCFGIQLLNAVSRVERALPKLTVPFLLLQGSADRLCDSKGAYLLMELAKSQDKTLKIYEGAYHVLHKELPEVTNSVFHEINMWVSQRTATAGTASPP
Procedure, shortened: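 Human prefrontal cortex or cell membrane proteomes (1.0 mg/mL total protein) were preincubated with varying inhibitor concentrations for 30 min at 37° C. FP-Rh or HT-01 probe (50 μM DMSO stock) was then added for 30 min at room temperature, and samples were quenched in SDS loading buffer and resolved by SDS-PAGE.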

[3] = PC3 cell proteome, concentration not given (μM)

SMILES	% Inh 5 mg/kg MGLL (Mouse) (MAGL [1])	IC50 (MGLL)	% Inh MGLL Brain (Mouse, μM) (MGLL)	% Inh ABHD6 Brain (Mouse, μM) (ABHD6)	IC50 (ABHD6; mouse proteome)	% Inh MGLL PC3 (Human, μM) (MAGL [2]; [3])	IC50 MGLL PC3 (Human, μM) (MAGL [2]; PC3 cell proteome)	IC50 MGLL PFC (Human, μM) (MAGL [2]; prefrontal cortex (PFC) proteome)	IC50 MGLL Brain (Mouse, μM) (MGLL)	% Inh MGLL PFC (Human, μM) (MAGL [2]; prefrontal cortex (PFC) proteome, concentration not given (μM))
CC(C)(C#Cc1c(F)cccc1CN1CCCC12CCN(C(=O)OC(C(F)(F)F)C(F)(F)F)CC2)C(=O)O [Example 147, 4-{2-Fluoro-6-[(8-{[(1,1,1,3,3,3-hexafluoropropan-2-yl)oxy]carbonyl}-1,8-diazaspiro[4.5]decan-1-yl)methyl]phenyl}-2,2-dimethylbut-3-ynoic acid]	–	–	### (### is ≥75%)	# (# is ≤25%)	–	### (### is ≥75%)	–	–	–	–
O=C(OC(C(F)(F)F)C(F)(F)F)N1CCC2(CCCN2Cc2cc(Cl)cc(C3(C(=O)O)CCCC3)c2)CC1 [Example 134, l-{3-Chloro-5-[(8-{[(1,1,1,3,3,3-hexafluoropropan-2-yl)oxy]carbonyl}-1,8-diazaspiro[4.5]decan-1-yl)methyl]phenyl}cyclopentane-1-carboxylic acid]	–	–	### (### is ≥75%)	# (# is ≤25%)	–	### (### is ≥75%)	–	–	–	–
O=C(O)CN1CCN(c2cc(C(F)(F)F)ccc2CN2CCCC23CCN(C(=O)OC(C(F)(F)F)C(F)(F)F)CC3)CC1 [Example 3, 2-(4-(2-((8-(((1,1,1,3,3,3-Hexafluoropropan-2-yl)oxy)carbonyl)-1,8-diazaspiro[4.5]decan-1-yl)methyl)-5-(trifluoromethyl)phenyl)piperazin-1-yl)acetic acid]	–	–	### (### is ≥75%)	# (# is ≤25%)	–	### (### is ≥75%)	* * *	* * *	* * *	–

Further lines, results first:

% Inh 5 mg/kg MGLL (Mouse) (MAGL [1])	IC50 (MGLL)	% Inh MGLL Brain (Mouse, μM) (MGLL)	% Inh ABHD6 Brain (Mouse, μM) (ABHD6)	IC50 (ABHD6; mouse proteome)	% Inh MGLL PC3 (Human, μM) (MAGL [2]; [3])	IC50 MGLL PC3 (Human, μM) (MAGL [2]; PC3 cell proteome)	IC50 MGLL PFC (Human, μM) (MAGL [2]; prefrontal cortex (PFC) proteome)	IC50 MGLL Brain (Mouse, μM) (MGLL)	% Inh MGLL PFC (Human, μM) (MAGL [2]; prefrontal cortex (PFC) proteome, concentration not given (μM))	SMILES
### (### is ≥75%)	< 100 nM	### (### is ≥75%)	## (## is between 25 and 75%)	> 1000 nM	–	–	–	–	–	CS(=O)(=O)N1CCC2(CC1)CN(c1cc(C(F)(F)F)ccc1CN1CCN(C(=O)OC(C(F)(F)F)C(F)(F)F)CC1)C2 [Example 207, 1,1,1,3,3,3-Hexafluoropropan-2-yl 4-(2-(7-(methylsulfonyl)-2,7-diazaspiro[3,5]nonan-2-yl)-4-(trifluoromethyl)benzyl) piperazine-1-carboxylate]
–	–	### (### is ≥75%)	# (# is ≤25%)	–	–	–	–	–	### (### is ≥75%)	O=C(O)CN1CCC2(CC1)CN(c1cc(C(F)(F)F)ccc1CN1CCCC13CCN(C(=O)OC(C(F)(F)F)C(F)(F)F)CC3)C2 [Example 156, 2-(2-(2-((8-(((1,1,1,3,3,3-Hexafluoropropan-2-yl)oxy)carbonyl)-1,8-diazaspiro[4.5]decan-1-yl)methyl)-5-(trifluoromethyl)phenyl)-2,7-diazaspiro[3.5]nonan-7-yl)acetic acid]
